Test results taken from PMC9465641 (Frontiers in Pharmacology, 2022).
Structures can show the parent of a compound that is named as a salt. Positions of bridges follow the written chain, without caps; N, C: chain ends. Non-standard residues stand in square brackets, D forms with d. Residues, ends and D or L forms follow the SMILES beside them. *: point of attachment. X1 = CC[C@H](C)CCCCC(=O)*; Dab = NCC[C@H](N)C(=O)O

Experiments:
[1] = tested on: carbapenem-resistant gram-negative bacteria; experiment: Clinical outcome, microbiological outcome and nephrotoxicity in patients; type: in vivo, human
Description: The primary endpoint was the clinical outcome, and the secondary endpoint was the microbiological outcome. Clinical outcomes were defined as valid, if signs and symptoms of infection disappeared or improved on Day 7 after the initiation of colistin therapy; or invalid, defined as any of the following criteria: death related to infection, hemodynamic instability, deteriorated Sequential Organ Failure Assessment (SOFA) score, constant fever >38.5°C, repeat isolation of bacterial phenotypically identical to the index isolate. […] Colistin-induced nephrotoxicity was defined using RIFLE (risk, injury, failure, loss of kidney function, and end-stage renal disease) criteria during treatment ([Bellomo et al., 2004]). […]

[2] = Individual drug exposure at steady state (PK/PD analysis); type: in vivo, human
[3] = tested on: PA+AB (P. aeruginosa + A. baumannii); experiment: MIC for colistin of causative pathogen; type: cell-based
[4] = parameters: method as in Al-Khayyat and Aronson, 1973; conditions: dogs; ref Al-Khayyat and Aronson, 1973; cited from earlier work
[5] = parameters: method as in Couet et al., 2011; conditions: colistin converted from CMS; ref Couet et al., 2011; cited from earlier work
[6] = used for fAUC/MIC; ref Nation et al., 2016; cited from earlier work
Description: The AUC for each dosing regimen was calculated at 24 or 72 h after therapy to evaluate the probability of target attainment (PTA) of fAUC/MIC ≥20 ([Dudhani et al., 2010a]; [Cheah et al., 2015]), where f is the unbound fraction of colistin defined as 0.49 ([Nation et al., 2016]). Dosing regimens were considered appropriate if PTA ≥90% was achieved. In addition, the average steady-state plasma colistin concentration (Css,avg) was used to evaluate the probabilities of efficacy and toxicity, and the desired Css, avg were designed to achieve target attainment rates of >80% for Css,avg ≥ 2 and <30% ...

[7] = patient 1, Pulmonary, PA+AB, MIC 0.5 mg/L, 1.0 MU q12h, with MER+LIN
[8] = patient 2, Pulmonary, Bloodstream, Urinary tract, KP, MIC 0.5 mg/L, 1.0 MU q12h, with MER
[9] = patient 3, Pulmonary, AB, MIC 0.5 mg/L, 0.75 MU q12h + inhaled 0.25MU q12h, with MER
[10] = patient 6, Pulmonary, Bloodstream, KP, MIC 0.5 mg/L, 1.0 MU q12h + inhaled 0.25MU q12h, with PIP/TAZ
[11] = patient 7, Pulmonary, KP, MIC 0.5 mg/L, 0.75 MU q12h + inhaled 0.25MU q12h, with MER, PIP/TAZ
[12] = patient 8, Pulmonary, AB, MIC 2 mg/L, 0.75 MU q12h + inhaled 0.25MU q12h, with MER
[13] = patient 9, Pulmonary, AB, MIC 0.5 mg/L, 0.75 MU q12h + inhaled 0.25MU q12h, with MER
[14] = patient 10, Pulmonary, AB, MIC 0.5 mg/L, 0.75 MU q12h + inhaled 0.25MU q12h, with MER+LIN
[15] = patient 11, Bloodstream, AB, MIC 0.5 mg/L, 1.0 MU q12h, with MER+TEI
[16] = patient 12, Bloodstream, Urinary tract, KP, MIC 0.5 mg/L, 0.5 MU q8h, with CEF/AVI
[17] = patient 13, Pulmonary, Bloodstream, KP, MIC 0.5 mg/L, 0.5 MU q8h, with CEF/AVI
[18] = patient 14, Pulmonary, Bloodstream, Abdomen, KP, MIC 0.5 mg/L, 0.5 MU q8h, with CEF/AVI
[19] = patient 15, Abdomen, PA+AB, MIC 1, 2 mg/L, 0.75 MU q8h + inhaled 0.25MU q12h, with MER+CEF/SUL
[20] = patient 16, Pulmonary, AB, MIC 0.5 mg/L, 0.5 MU q8h + inhaled 0.25MU q12h, with MER+CEF/SUL
[21] = patient 18, Pulmonary, AB, MIC 0.5 mg/L, 0.75 MU q12h + inhaled 0.25MU q12h, with MER
[22] = patient 19, Pulmonary, AB, MIC 0.5 mg/L, 0.5 MU q8h, with MER+TEI
[23] = patient 1, 1.0 MU q12h, CrCL 63.93 ml/min
[24] = patient 2, 1.0 MU q12h, CrCL 138.05 ml/min
[25] = patient 3, 0.75 MU q12h + inhaled 0.25MU q12h, CrCL 193.84 ml/min
[26] = patient 6, 1.0 MU q12h + inhaled 0.25MU q12h, CrCL 23.79 ml/min
[27] = patient 7, 0.75 MU q12h + inhaled 0.25MU q12h, CrCL 10.2 ml/min
[28] = patient 8, 0.75 MU q12h + inhaled 0.25MU q12h, CrCL 62.44 ml/min
[29] = patient 9, 0.75 MU q12h + inhaled 0.25MU q12h, CrCL 70.98 ml/min
[30] = patient 10, 0.75 MU q12h + inhaled 0.25MU q12h, CrCL 29.3 ml/min
[31] = patient 11, 1.0 MU q12h, CrCL 26.81 ml/min
[32] = patient 12, 0.5 MU q8h, CrCL 9.7 ml/min
[33] = patient 13, 0.5 MU q8h, CrCL 52.49 ml/min
[34] = patient 14, 0.5 MU q8h, CrCL 93.28 ml/min
[35] = patient 15, 0.75 MU q8h + inhaled 0.25MU q12h, CrCL 41.41 ml/min
[36] = patient 16, 0.5 MU q8h + inhaled 0.25MU q12h, CrCL 45.07 ml/min
[37] = patient 18, 0.75 MU q12h + inhaled 0.25MU q12h, CrCL 101.48 ml/min
[38] = patient 19, 0.5 MU q8h, CrCL 91.55 ml/min

## CC[C@H](C)CCCCC(=O)N[C@@H](CCN)C(=O)N[C@H](C(=O)N[C@@H](CCN)C(=O)N[C@H]1CCNC(=O)[C@H]([C@@H](C)O)NC(=O)[C@H](CCN)NC(=O)[C@H](CCN)NC(=O)[C@H](CC(C)C)NC(=O)[C@@H](CC(C)C)NC(=O)[C@H](CCN)NC1=O)[C@@H](C)O [colistin sulfate] (X1-[Dab]T[Dab][Dab][Dab][dL]L[Dab][Dab]T; lactam 4-C)
[1]; 12 of 16 cases, definitive therapy, Day 7
  successful clinical outcomes: 75%
[1]; 13 of 16 subjects, causative pathogen MIC 0.5–2 mg/L
  microbiological eradication: 81.25%
[1]; during the treatment
  colistin-induced nephrotoxicity (RIFLE criteria): None of the patients experienced colistin-induced nephrotoxicity
[1]; [7]
  Clinical outcomes: Valid
  Microbiological outcomes: clearance
[1]; [8]
  Clinical outcomes: Invalid
  Microbiological outcomes: clearance
[1]; [9]
  Clinical outcomes: Valid
  Microbiological outcomes: clearance
[1]; [10]
  Clinical outcomes: Valid
  Microbiological outcomes: clearance
[1]; [11]
  Clinical outcomes: Valid
  Microbiological outcomes: clearance
[1]; [12]
  Clinical outcomes: Invalid
  Microbiological outcomes: uncleared
[1]; [13]
  Clinical outcomes: Valid
  Microbiological outcomes: clearance
[1]; [14]
  Clinical outcomes: Valid
  Microbiological outcomes: clearance
[1]; [15]
  Clinical outcomes: Valid
  Microbiological outcomes: clearance
[1]; [16]
  Clinical outcomes: Valid
  Microbiological outcomes: clearance
[1]; [17]
  Clinical outcomes: Valid
  Microbiological outcomes: clearance
[1]; [18]
  Clinical outcomes: Valid
  Microbiological outcomes: clearance
[1]; [19]
  Clinical outcomes: Invalid
  Microbiological outcomes: uncleared
[1]; [20]
  Clinical outcomes: Valid
  Microbiological outcomes: clearance
[1]; [21]
  Clinical outcomes: Valid
  Microbiological outcomes: clearance
[1]; [22]
  Clinical outcomes: Invalid
  Microbiological outcomes: uncleared
[2]; [23]
  Css, avg: 1990 ng/mL
  Css, max: 3980 ng/mL
[2]; [24]
  Css, avg: 1170 ng/mL
  Css, max: 2480 ng/mL
[2]; [25]
  Css, avg: 570 ng/mL
  Css, max: 1710 ng/mL
  Css, min: 130 ng/mL
[2]; [26]
  Css, avg: 2430 ng/mL
  Css, max: 3010 ng/mL
  Css, min: 1950 ng/mL
[2]; [27]
  Css, avg: 1590 ng/mL
  Css, max: 2490 ng/mL
  Css, min: 890 ng/mL
[2]; [28]
  Css, avg: 1150 ng/mL
  Css, max: 2100 ng/mL
[2]; [29]
  Css, avg: 2040 ng/mL
  Css, max: 3020 ng/mL
  Css, min: 1400 ng/mL
[2]; [30]
  Css, avg: 1510 ng/mL
  Css, max: 2480 ng/mL
  Css, min: 870 ng/mL
[2]; [31]
  Css, avg: 4400 ng/mL
  Css, max: 5840 ng/mL
[2]; [32]
  Css, avg: 2070 ng/mL
  Css, max: 2670 ng/mL
[2]; [33]
  Css, avg: 1490 ng/mL
  Css, max: 2090 ng/mL
[2]; [34]
  Css, avg: 740 ng/mL
  Css, max: 1340 ng/mL
[2]; [35]
  Css, avg: 2520 ng/mL
  Css, max: 3620 ng/mL
[2]; [36]
  Css, avg: 1580 ng/mL
  Css, max: 2240 ng/mL
[2]; [37]
  Css, avg: 860 ng/mL
  Css, max: 1890 ng/mL
  Css, min: 280 ng/mL
[2]; [38]
  Css, avg: 1330 ng/mL
  Css, max: 1920 ng/mL
  Css, min: 830 ng/mL
[3]; isolates of patient 15, first printed value
  MIC: 1 µg/mL
[3]; isolates of patient 15, second printed value
  MIC: 2 µg/mL
[4]
  dose recovered from urine: 0.13 ± 0.09%
[5]
  CL: 2.92 L/h
[6]
  unbound fraction (f): 0.49
